Measurements taken from US7687508B2, “Cyclic derivatives as modulators of chemokine receptor activity” (Bristol-Myers Squibb Company, priority 2006, dated 2010).

How the values were obtained:
[1] = biological target: human cardiac sodium channel, SCN5A (Nav1.5) (Homo sapiens, UniProt Q14524); assay: Sodium channel patch clamp (whole-cell, HEK-293); type: cell-based; details: HEK-293 cells expressing human cardiac sodium channel SCN5A, 30,000 nM, read-out: Na+ channel patch clamp (% inhibition)
Method: The compound was tested at a protein-free aqueous buffer. For determining steady state inhibition, sodium currents were elicited every 5 seconds using the following voltage protocol: cells were held at a potential of −90 mV and stepped to −20 mV for 60 ms. Effects were calculated by measuring inhibition of peak current during the test pulse to −20 mV. Rate-dependence of inhibition was assessed by stimulation at frequencies of 1 Hz and 4 Hz.

[2] = biological target: T1, human CCR2 (Homo sapiens, UniProt P41597); assay: CCR2 chemotaxis (MCP-1-induced, THP-1 cells); type: cell-based; parameters: hPBMCs were isolated from human leukopak (Biological Specialty Inc.); endogenous in cells; host or cells: human peripheral blood mononuclear cells from leukopak (Biological Specialty Inc.)
T1 sequence (P41597 1-360 isoform P41597-2): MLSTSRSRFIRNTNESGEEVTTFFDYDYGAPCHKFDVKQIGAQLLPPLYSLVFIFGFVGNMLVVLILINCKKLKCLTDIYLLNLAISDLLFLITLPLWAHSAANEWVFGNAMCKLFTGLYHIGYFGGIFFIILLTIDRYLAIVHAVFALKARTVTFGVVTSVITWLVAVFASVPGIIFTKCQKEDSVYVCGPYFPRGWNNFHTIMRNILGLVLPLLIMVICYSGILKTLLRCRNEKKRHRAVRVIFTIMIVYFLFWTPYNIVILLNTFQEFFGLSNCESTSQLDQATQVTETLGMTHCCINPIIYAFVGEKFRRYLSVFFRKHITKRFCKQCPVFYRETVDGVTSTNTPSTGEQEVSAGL
Method: The human CCR2 chemotaxis assay was conducted with the human monocytic cell line, THP-1. THP-1 cells were first labeled with the fluorescent dye Calcein-AM in phenol red-free, BSA-free RPMI-1640 (pH 7.4) at 37° C. for 30 minutes with gentle mixing every 15 minutes. The labeled cells were then washed and re-suspended at 1×10^5/ml in chemotaxis buffer (phenol red-free RPMI-1640, 0.1% BSA, pH 7.4). The test compound was diluted in chemotaxis buffer such that the final assay concentration ranged from 0.01 nM to 1 μM. […] To perform the assay, an equal volume of test compound dilutions was mixed with an equal volume of labeled THP-1 cells (Mixture 1), and an equal volume of test compound dilutions was mixed with an equal volume of diluted MCP-1 ligand (Mixture 2). Both mixtures were incubated independently at 37° C. for 10 minutes followed by gentle mixing. MCP-1-induced chemotaxis was then measured in a chemotaxis plate (Becton Dickinson) by placing 50 μl of Mixture 1 in the top chamber and 225 μl of Mixture 2 in the bottom chamber. The plate was covered with a lid and incubated at 37° C. for 30 minutes. 30 minutes later, the plate was read on a Cytofluor. All conditions were tested in duplicate. […] The inhibition achieved by graded concentrations of test compound was calculated as a percentage of the compound-free MCP-1 control.

[3] = biological target: T1, human CCR2; assay: Human peripheral blood mononuclear cell binding (CCR2 binding), 125I-human MCP-1 tracer; parameters: hPBMCs were isolated from human leukopak (Biological Specialty Inc.); endogenous in cells; host or cells: human peripheral blood mononuclear cells from leukopak (Biological Specialty Inc.); details: hPBMCs, 125I-MCP-1; figure in parentheses in the cell not copied (count of determinations); read-out: CCR2 Binding IC50
Method: See also: Yoshimura et al., J. Immunol. 1990, 145, 292. The human CCR2 binding assay was established with human peripheral blood mononuclear cells (hPBMCs) using ^125I-human MCP-1 as the tracer ligand. hPBMCs were isolated from human leukopak (Biological Specialty Inc.) using a standard protocol with Ficoll-Hypaque (Mediatech Cellgro). Isolated hPBMCs were washed and diluted to 1×10^7/ml in binding buffer (RPMI-1640, 0.1% BSA, 20 mM Hepes, pH 7.4). ^125I-MCP-1 (NEN/Perk Elmer) was diluted to 0.45 nM in binding buffer. The compound was diluted in binding buffer at 3-fold the final concentrations used in the binding assay. The binding assay was performed using a 96-well filter plate (Millipore). Total ^125I-MCP-1 binding was assessed as follows: to each reaction of a total volume of 150 μl were added 5×10^5 cells, 0.15 nM […], and compound such that the final concentration ranged from 0 to 100 nM. The plate was incubated at room temperature for 30 minutes followed by three washes with RPMI-1640, 0.1% BSA, 0.4 M NaCl, 20 mM Hepes, pH 7.4 using a vacuum manifold filtration (Millipore). After washing, the plate was air-dried for 60 minutes at room temperature. This was followed by adding 25 μl of Microscint 20 into each well. The plate was sealed and counted on the Trilux for 1 minute. Non-specific binding was determined in the presence of 300 nM cold MCP-1 (PeproTech Inc.). Specific 1-MCP-1 was calculated as the difference between total and non-specific binding. All conditions were tested in duplicate.

[4] = Parallel Artificial Membrane Permeability Assay (PAMPA); type: in vitro ADME; details: apical and basolateral pH 7.4
Method: All experiments are conducted in triplicate determinations.

[5] = biological target: T2, hERG (Homo sapiens, UniProt Q12809); assay: hERG patch clamp (whole-cell, HEK-293); type: cell-based; details: for inhibition at 10000 nM: pH 7.4, 10,000 nM; for inhibition at 30000 nM: pH 7.4, 30,000 nM
T2 construct: expressed in transfected cells

[6] = biological target: T2, hERG; assay: hERG flux (Tl+ flux, FLIPR) in HEK293 cells; type: cell-based; details: HEK293 cells stably expressing hERG
Method: HEK293 cells stably-expressing hERG channels were grown (37° C., 5% CO2) in Dulbecco's Modified Eagle's Media supplemented with 10% Sigma fetal bovine serum, non-essential amino acids, 2 mM L-glutamine and 500 μg/ml G418, at incubator.
A 2 mM stock of BTC-AM dye (Molecular Probes, Eugene, Oreg.) was prepared in 100% DMSO and then added 1:1 to 10% (w/v) pluronic acid in DMSO on the day of assay. The dye was then diluted in hERG external EP buffer (140 mM NaCl, 4.0 mM KCl, 1.8 mM CaCl2, 1.0 mM MgCl2, 10 mM HEPES, pH 7.3 and 10 mM glucose; all buffer components obtained from Sigma Chemical). […] Cells are incubated at 21° C. for 45 minutes.
These compounds were then serially-diluted at a 1:2 ratio in DMSO in columns 1-10 and 11-20 of a 384-well plate. Assay-ready plates were generated by stamping 2.5 μl from the DMSO serially diluted plate, which was prepared on the Velocity 11 BioCel. Aqueous plates were created by adding 48 μl of EP buffer and then were diluted 30-45 minutes before the assay was read on the FLIPR. […] Final DMSO concentration in the assay is 1%. Assay-ready aqueous plates were prepared and diluted on a Cybio liquid handler.
Data collection proceeded every second for 48 seconds, and then continued every three seconds for an additional 2 minutes.
The dynamic range of the assay was determined from blanks and totals wells. The totals wells (columns 21 and 22) define maximal hERG activation for the plate (no test compound present), and the blanks wells (columns 23 and 24) define 100% hERG inhibition. […] Raw data points in each sample well were first corrected for cell/signal variation, negative control (blanks) background, and normalized to the positive controls (totals) using the online FLIPR software. Test compound concentration response curves for the hERG Tl^+ flux data were then fit using Excel Fit (ID Business Solutions Limited, Surrey, UK) with a single-site logistic equation, Y=A+((B−A)/1+((C/X)^D))) where A=maximal inhibition. Data were analyzed by fitting maximum amplitudes of change in fluorescence for Tl^+ flux for a given condition of test compound.

[7] = Single-dose pharmacokinetics in rats; type: in vivo; details: male, Sprague-Dawley, plasma, rat, dose per compound (mg/kg); for clearance: IV; for AUC: PO; for bioavailability: oral bioavailability
Method: (1500-2000×g) to obtain plasma. […] Plasma samples, obtained by centrifugation at 4° C.

[8] = Single-dose pharmacokinetics in monkeys; type: in vivo; details: male, cynomolgus monkey, plasma, dose per compound (mg/kg); for AUC: PO; for clearance: IV; for bioavailability: oral bioavailability
From the text: (1500-2000×g) to obtain plasma.

T2 sequence (Q12809 whole entry): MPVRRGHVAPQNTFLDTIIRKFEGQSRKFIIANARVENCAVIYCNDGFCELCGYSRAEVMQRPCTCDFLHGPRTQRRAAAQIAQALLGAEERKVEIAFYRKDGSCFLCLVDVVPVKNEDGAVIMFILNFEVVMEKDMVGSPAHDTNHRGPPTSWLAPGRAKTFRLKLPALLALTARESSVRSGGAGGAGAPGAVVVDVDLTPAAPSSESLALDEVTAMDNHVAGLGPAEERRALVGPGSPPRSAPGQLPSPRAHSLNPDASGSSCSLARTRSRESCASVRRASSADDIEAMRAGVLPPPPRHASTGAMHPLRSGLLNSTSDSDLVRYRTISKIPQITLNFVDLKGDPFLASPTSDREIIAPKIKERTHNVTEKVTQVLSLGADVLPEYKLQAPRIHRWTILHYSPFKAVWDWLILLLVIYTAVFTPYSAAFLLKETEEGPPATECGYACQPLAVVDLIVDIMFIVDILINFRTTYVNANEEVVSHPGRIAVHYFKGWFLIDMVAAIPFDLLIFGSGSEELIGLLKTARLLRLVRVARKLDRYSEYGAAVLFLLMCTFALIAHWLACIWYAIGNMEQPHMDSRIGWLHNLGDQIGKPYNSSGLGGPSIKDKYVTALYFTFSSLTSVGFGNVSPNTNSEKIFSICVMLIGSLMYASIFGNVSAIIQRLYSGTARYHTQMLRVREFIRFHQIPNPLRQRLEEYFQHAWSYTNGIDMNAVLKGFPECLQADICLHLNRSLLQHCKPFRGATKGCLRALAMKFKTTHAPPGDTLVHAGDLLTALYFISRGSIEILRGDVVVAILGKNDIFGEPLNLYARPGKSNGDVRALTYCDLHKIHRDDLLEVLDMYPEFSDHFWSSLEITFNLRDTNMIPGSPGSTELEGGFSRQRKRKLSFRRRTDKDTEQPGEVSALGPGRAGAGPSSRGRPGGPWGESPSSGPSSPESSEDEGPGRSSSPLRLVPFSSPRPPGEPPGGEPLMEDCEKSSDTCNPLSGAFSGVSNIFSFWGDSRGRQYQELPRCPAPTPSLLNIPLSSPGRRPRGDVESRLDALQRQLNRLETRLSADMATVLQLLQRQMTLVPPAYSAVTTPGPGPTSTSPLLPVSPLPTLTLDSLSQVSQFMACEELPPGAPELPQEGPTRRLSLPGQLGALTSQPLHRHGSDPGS
human cardiac sodium channel, SCN5A (Nav1.5), sequence (Q14524 whole entry): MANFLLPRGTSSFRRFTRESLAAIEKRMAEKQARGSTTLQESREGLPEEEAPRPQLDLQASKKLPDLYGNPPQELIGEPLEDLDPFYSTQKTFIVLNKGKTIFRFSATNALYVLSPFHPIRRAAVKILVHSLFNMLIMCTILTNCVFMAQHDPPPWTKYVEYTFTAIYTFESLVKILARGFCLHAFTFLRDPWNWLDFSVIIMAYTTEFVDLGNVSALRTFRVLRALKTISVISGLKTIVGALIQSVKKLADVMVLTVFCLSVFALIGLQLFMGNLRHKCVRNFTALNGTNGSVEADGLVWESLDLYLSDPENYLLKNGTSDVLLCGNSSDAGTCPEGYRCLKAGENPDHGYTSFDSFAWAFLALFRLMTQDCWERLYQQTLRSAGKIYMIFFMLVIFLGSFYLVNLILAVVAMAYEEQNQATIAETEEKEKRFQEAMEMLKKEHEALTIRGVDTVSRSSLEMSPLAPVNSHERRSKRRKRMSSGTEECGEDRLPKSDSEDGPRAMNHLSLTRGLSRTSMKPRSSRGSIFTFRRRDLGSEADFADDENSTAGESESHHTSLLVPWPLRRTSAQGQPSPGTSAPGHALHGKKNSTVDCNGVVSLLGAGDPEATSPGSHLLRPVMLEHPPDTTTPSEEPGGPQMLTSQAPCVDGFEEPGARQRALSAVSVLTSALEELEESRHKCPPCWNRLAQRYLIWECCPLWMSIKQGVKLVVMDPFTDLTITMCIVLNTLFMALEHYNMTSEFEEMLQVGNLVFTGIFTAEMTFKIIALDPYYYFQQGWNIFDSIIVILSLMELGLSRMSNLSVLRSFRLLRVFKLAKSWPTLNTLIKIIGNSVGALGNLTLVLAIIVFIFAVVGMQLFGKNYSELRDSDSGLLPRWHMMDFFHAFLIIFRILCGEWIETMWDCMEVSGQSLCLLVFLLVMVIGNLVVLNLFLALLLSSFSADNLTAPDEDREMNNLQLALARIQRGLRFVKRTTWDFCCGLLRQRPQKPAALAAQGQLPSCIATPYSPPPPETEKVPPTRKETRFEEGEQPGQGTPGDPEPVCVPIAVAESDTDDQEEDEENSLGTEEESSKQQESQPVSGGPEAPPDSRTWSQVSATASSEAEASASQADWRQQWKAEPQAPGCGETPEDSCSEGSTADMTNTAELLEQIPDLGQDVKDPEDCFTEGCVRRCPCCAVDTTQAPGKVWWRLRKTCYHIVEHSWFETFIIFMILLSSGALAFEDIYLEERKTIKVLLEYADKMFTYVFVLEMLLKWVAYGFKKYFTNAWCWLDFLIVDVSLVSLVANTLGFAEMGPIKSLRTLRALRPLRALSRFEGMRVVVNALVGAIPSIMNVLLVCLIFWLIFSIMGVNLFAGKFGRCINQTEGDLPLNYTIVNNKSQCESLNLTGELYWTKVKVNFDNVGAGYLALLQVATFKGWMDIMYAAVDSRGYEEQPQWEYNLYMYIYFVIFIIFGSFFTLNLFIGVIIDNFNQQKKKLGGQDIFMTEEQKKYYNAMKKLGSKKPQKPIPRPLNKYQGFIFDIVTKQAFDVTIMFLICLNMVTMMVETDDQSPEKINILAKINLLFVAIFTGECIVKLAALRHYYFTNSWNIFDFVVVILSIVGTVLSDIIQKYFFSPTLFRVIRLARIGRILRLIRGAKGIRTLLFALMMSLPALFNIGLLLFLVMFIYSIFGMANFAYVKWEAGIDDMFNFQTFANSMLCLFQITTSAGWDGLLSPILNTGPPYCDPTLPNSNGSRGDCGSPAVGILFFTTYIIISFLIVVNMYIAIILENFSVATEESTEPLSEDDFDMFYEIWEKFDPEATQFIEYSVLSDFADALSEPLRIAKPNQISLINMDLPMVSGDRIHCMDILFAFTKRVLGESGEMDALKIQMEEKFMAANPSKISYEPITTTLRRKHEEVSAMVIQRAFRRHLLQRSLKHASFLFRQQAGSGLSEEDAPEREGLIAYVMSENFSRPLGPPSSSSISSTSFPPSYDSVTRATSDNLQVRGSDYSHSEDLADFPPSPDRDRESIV

| Structure (SMILES) | inhibition at 30000 nM [1] [%] | IC50 [2] [nM] | IC50 [3] [nM] | Papp at 4 h, 100 µM [4] [×10⁻⁶ cm/s] | inhibition at 10000 nM [5] [%] | inhibition at 30000 nM [5] [%] | IC50 [6] [nM] | clearance [7] [mL/min/kg] | AUC [7] [µM·h] | bioavailability [7] [%] | AUC [8] [µM·h] | clearance [8] [mL/min/kg] | bioavailability [8] [%] | inhibition at 100000 nM ([5]; pH 7.4, 100,000 nM) [%] |
| --- | --- | --- | --- | --- | --- | --- | --- | --- | --- | --- | --- | --- | --- | --- |
| CC(=O)N[C@@H]1C[C@H](N(C)C(C)C)CC[C@@H]1N1CC[C@H](NC(=O)c2cccc(C(C)(C)C)n2)C1=O [Example 9, N-((3S)-1-((1S,2R,4R)-2-acetamido-4-(isopropyl(methyl)amino)cyclohexyl)-2-oxo-3-pyrrolidinyl)-6-tert-butyl-2-pyridinecarboxamide] | 6 | 0.35 | 1.69 ± 0.67 | 26.6 | 26 | 41 | > 80000 | – | – | – | – | – | – | – |
| CC(C)(C)N[C@@H]1CC[C@H](N2CC[C@H](NC(=O)c3ccnc(C(C)(C)C)n3)C2=O)[C@H](NS(C)(=O)=O)C1 [Example 11, 2-tert-butyl-N—((S)-1-((1S,2R,4R)-4-(tert-butylamino)-2-(methylsulfonamido)cyclohexyl)-2-oxopyrrolidin-3-yl)pyrimidine-4-carboxamide] | – | 0.92 | 1.91 ± 0.52 | 35 | – | 15 | > 80000 | 56 | 3.04 | 52 | – | – | – | – |
| CCC(=O)N[C@@H]1C[C@H](NC(C)(C)C)CC[C@@H]1N1CC[C@H](NC(=O)c2ccnc(C(C)(C)C)n2)C1=O [Example 12, 2-tert-butyl-N-((3S)-1-((1S,2R,4R)-4-(tert-butylamino)-2-(propionylamino)cyclohexyl)-2-oxo-3-pyrrolidinyl)-4-pyrimidinecarboxamide] | – | – | 4.49 ± 1.35 | 23.9 | 6 | 7 | > 80000 | 59 | 5.23 | 91 | 0.413 | – | – | – |
| CC(=O)N[C@@H]1C[C@H](N(C)C)CC[C@@H]1N1CC[C@H](Nc2ncnc3ccc(C(F)(F)F)cc23)C1=O [Example 8, N-((1R,2S,5R)-5-(dimethylamino)-2-((3S)-2-oxo-3-((6-(trifluoromethyl)-4-quinazolinyl)amino)-1-pyrrolidinyl)cyclohexyl)acetamide] | 11 | 4.09 ± 1.21 | 3.58 ± 0.78 | – | 18 | 37 | > 80000 | – | 7.28 | – | 0.558 | – | – | – |
| CN[C@@H]1CC[C@H](N2CC[C@H](Nc3ncnc4ccc(C(F)(F)F)cc34)C2=O)[C@H](NC(C)=O)C1 [Example 3, N-((1R,2S,5R)-5-(methylamino)-2-((3S)-2-oxo-3-((6-(trifluoromethyl)-4-quinazolinyl)amino)-1-pyrrolidinyl)cyclohexyl)acetamide] | 3 | – | 4.74 ± 0.58 | – | 6 | 24 | > 80000 | – | – | – | 2.05 | 15 | 91 | – |
| CO[C@@H]1CC[C@H](N2CC[C@H](Nc3ncnc4ccc(C(F)(F)F)cc34)C2=O)[C@H](CNC(C)=O)C1 [Example 15, N-(((1S,2S,5R)-5-methoxy-2-((3S)-2-oxo-3-((6-(trifluoromethyl)-4-quinazolinyl)amino)-1-pyrrolidinyl)cyclohexyl)methyl)acetamide] | – | 0.92 ± 0.67 | 3.34 ± 0.71 | 18.6 | – | 29 | > 80000 | 23 | 16.2 | 93 | 0.333 | 28 | 19 | 47 |
| CC(C)(C)N[C@@H]1CC[C@H](N2CC[C@H](Nc3ncnc4cnc(C(C)(C)C)nc34)C2=O)[C@H](NS(C)(=O)=O)C1 [Example 13, N-((1R,2S,5R)-5-(tert-butylamino)-2-((3S)-3-((6-tert-butylpyrimido[5,4-d]pyrimidin-4-yl)amino)-2-oxo-1-pyrrolidinyl)cyclohexyl)methanesulfonamide] | – | 0.49 | 4.02 ± 1.31 | 54.1 ± 6.3 | – | 10 | > 80000 | 26 | 10.5 | 88 | 0.263 | – | – | – |
